Type in all cases: in vivo
Experiment [1] relates to Cabbage Looper [Trichoplusia ni (Hubner)]. Put plainly: Cabbage looper test (CL). Conditions: second-instar larvae, 3-5 days, percent in solution.
Protocol: Test compounds were diluted in a 50-50 acetone-water solution. Cotyledons of hyzini squash (Calabacita abobrinha), approximately 1×1.5 inches, were immersed in the test solutions for 2-3 seconds and placed on a wire screen to dry. The dried leaves were placed in petri dishes containing a moistened piece of filter paper and infested with 5 second-instar cabbage looper larvae. The dishes were placed in a high humidity chamber. Mortality of the larvae was recorded 3-5 days later. Test concentrations ranged from 0.1% downward. The LC-50 value is expressed below in Table 3 under the heading "CL" in terms of percent of the test compound in solution.
Experiment [2] has as its system Housefly [Musca domestica]. Put plainly: Housefly insecticidal test (HF). Conditions: per 25 female houseflies, 48 hours.
Experiment [3] concerns Tobacco Budworm [Heliothis virescens (Fabricius)] eggs. The experiment in a line: Tobacco budworm egg test (TBW-E). Particulars: percent in solution.
Description: Eggs: Paper towel patches of 2-day old eggs of the tobacco budworm were dipped in acetone solutions of the test compound and placed in petri dishes containing a portion of larval rearing medium. […] Test concentrations ranged from 0.1% downward.

Take `CC(C)c1ccc(N=C(OCc2cccc(Oc3ccc(F)cc3)c2)C(C)(C)C)cc1` [Compound 322]: the “LC50 CL” value in experiment [1] was determined as 0.007%. Besides, the “LC50 HF” value in experiment [2] was more than 100 µg. In addition, the “LC50 TBW E” value in experiment [3] is listed as more than 0.1%.

With `CC(C)C(=Nc1ccc(C(C)(C)C)cc1)OCc1cccc(Oc2ccc(F)cc2)c1` [Compound 235], the “LC50 CL” value in experiment [1] is given as 0.004%. Also, the “LC50 HF” value in experiment [2] is more than 100 µg. In addition, the “LC50 TBW E” value in experiment [3] was more than 0.1%.

Take `CCC(C)C(=Nc1ccc(F)c(Cl)c1)OCc1ccc(F)c(Oc2ccccc2)c1` (stereo not drawn) [Compound 261]: in experiment [1], the “LC50 CL” value turned out to be 0.001%. Moreover, in experiment [2], the “LC50 HF” value stood at 24 µg. For the same molecule, in experiment [3], the “LC50 TBW E” value was 0.05%.

Turning to `Cc1ccc(Oc2cccc(COC(=Nc3cccc(C(F)(F)F)c3)C(C)C)n2)cc1` [Compound 495], the “LC50 CL” value in experiment [1] came out at 0.012%. The “LC50 HF” value in experiment [2] is more than 100 µg. In experiment [3], the “LC50 TBW E” value was found to be 0.1%.

For `CC(C)C(=Nc1ccc(C#N)c(F)c1)OCc1cccc(Oc2ccc(F)cc2)c1` [Compound 222], the “LC50 CL” value in experiment [1] is given as 0.0015%. Moreover, the “LC50 HF” value in experiment [2] amounted to 32 µg. Also, in experiment [3], the “LC50 TBW E” value is on record as more than 0.1%.

For `CC(C)C(=Nc1ccc2c(c1)OCO2)OCc1cccc(Oc2ccccc2F)c1` [Compound 183], the “LC50 CL” value in experiment [1] turned out to be 0.00075%. The “LC50 HF” value in experiment [2] came out at 10 µg. In experiment [3], the “LC50 TBW E” value is 0.075%.

On to `CC(C)(Cl)C(=Nc1ccc(Cl)c2ccccc12)OCc1cccc(Oc2ccccc2)c1` [Compound 111], for which the “LC50 CL” value in experiment [1] was 0.1%. In experiment [2], the “LC50 HF” value is more than 100 µg. Also, the “LC50 TBW E” value in experiment [3] is more than 0.1%.

For the molecule `CC(C)c1ccc(N=C(OCc2cccc(Oc3ccccc3)c2)C(C)(C)C)cc1` [Compound 165], in experiment [1], the “LC50 CL” value was 0.007%. Also, the “LC50 HF” value in experiment [2] was more than 100 µg. In experiment [3], the “LC50 TBW E” value is reported as more than 0.1%.

Take `CC(C)C(=Nc1cccc(C(F)(F)F)c1)OCc1cccc(Oc2ccc(Br)cc2)n1` [Compound 493]: the “LC50 CL” value in experiment [1] is on record as 0.0008%. In addition, the “LC50 HF” value in experiment [2] is 36 µg. In experiment [3], the “LC50 TBW E” value is 0.05%.

For `CC(C)C(=Nc1ccc(C(F)(F)F)cc1)OCc1ccc(F)c(Oc2ccc(F)cc2)c1` [Compound 287], the “LC50 CL” value in experiment [1] was 0.0025%. In experiment [2], the “LC50 HF” value was more than 100 µg. In experiment [3], the “LC50 TBW E” value is recorded as more than 0.1%.

Regarding `CC(Br)C(=Nc1ccc(F)c(Cl)c1)OCc1cccc(Oc2ccc(F)cc2)c1` (stereo not drawn) [Compound 305], the “LC50 CL” value in experiment [1] is 0.048%. In addition, the “LC50 HF” value in experiment [2] was more than 100 µg. The “LC50 TBW E” value in experiment [3] is reported as more than 0.1%.

With `Cc1cc(Br)ccc1N=C(OCc1cccc(Oc2ccccc2)c1)C(C)C` [Compound 133], in experiment [1], the “LC50 CL” value is listed as 0.005%. For the same molecule, in experiment [2], the “LC50 HF” value is 66 µg. For the same molecule, the “LC50 TBW E” value in experiment [3] is on record as 0.1%.

Take `CC(C)C(=Nc1ccc(Cl)cc1)OCc1coc(Cc2ccccc2)c1` [Compound 484]: the “LC50 CL” value in experiment [1] is given as 0.003%. Also, the “LC50 HF” value in experiment [2] stood at 16 µg. The “LC50 TBW E” value in experiment [3] is given as more than 0.1%.

Regarding `CC(C)C(=Nc1ccc2c(c1)OCO2)OCc1ccc(F)c(Oc2ccc(Cl)cc2)c1` [Compound 313], the “LC50 CL” value in experiment [1] was 0.00025%. In experiment [2], the “LC50 HF” value was more than 100 µg. The “LC50 TBW E” value in experiment [3] was determined as 0.013%.

As to `CC(C)C(=Nc1ccc(C#N)c(F)c1)OCc1cccc(Oc2ccccc2)c1` [Compound 233], the “LC50 CL” value in experiment [1] is 0.0017%. Moreover, the “LC50 HF” value in experiment [2] came to 10 µg. Besides, in experiment [3], the “LC50 TBW E” value is on record as 0.09%.

For `CCCC(=Nc1ccc(F)c(Cl)c1)OCc1cccc(Oc2ccccc2)c1` [Compound 123], the “LC50 CL” value in experiment [1] came to 0.012%. Also, the “LC50 HF” value in experiment [2] was more than 100 µg. Besides, in experiment [3], the “LC50 TBW E” value is listed as more than 0.1%.

Take `COc1cc(N=C(OCc2cccc(Oc3ccccc3)c2)C(C)C)cc(OC)c1OC` [Compound 248]: the “LC50 CL” value in experiment [1] was determined as 0.02%. Further, the “LC50 HF” value in experiment [2] is 40 µg. Moreover, in experiment [3], the “LC50 TBW E” value is given as more than 0.1%.

On to `CC(C)C(=Nc1ccc(F)c(Cl)c1)OCc1cccc(OCc2ccccc2)c1` [Compound 472], for which the “LC50 CL” value in experiment [1] worked out at 0.0025%. The “LC50 HF” value in experiment [2] is more than 100 µg. Moreover, in experiment [3], the “LC50 TBW E” value is reported as more than 0.1%.

Turning to `CC(C)C(=Nc1ccc(C(C)(C)C)c(Cl)c1)OCc1cccc(Oc2ccc(F)cc2)c1` [Compound 308], in experiment [1], the “LC50 CL” value turned out to be 0.009%. In addition, in experiment [2], the “LC50 HF” value was more than 100 µg. Besides, the “LC50 TBW E” value in experiment [3] is recorded as more than 0.1%.

For the molecule `CC(C)(C)C(=Nc1cccc(Cl)c1)OCc1cccc(Oc2ccccc2)c1` [Compound 12], in experiment [1], the “LC50 CL” value is 0.008%. In addition, the “LC50 HF” value in experiment [2] is more than 100 µg. Further, the “LC50 TBW E” value in experiment [3] is on record as more than 0.1%.

For `CC(C)C(=Nc1ccc(Cl)cc1Cl)OCc1cccc(Oc2ccc(F)cc2)c1` [Compound 312], the “LC50 CL” value in experiment [1] is recorded as 0.006%. In addition, the “LC50 HF” value in experiment [2] was more than 100 µg. In addition, the “LC50 TBW E” value in experiment [3] is reported as more than 0.1%.

As for `CC(C)C(=Nc1cccc(I)c1)OCc1cccc(Oc2ccccc2)c1` [Compound 136], in experiment [1], the “LC50 CL” value was 0.004%. The “LC50 HF” value in experiment [2] turned out to be 9 µg. Moreover, the “LC50 TBW E” value in experiment [3] is 0.08%.

As for `CC(C)C(=Nc1ccc(Cl)c(Cl)c1)OCc1cccc(Oc2ccc(F)cc2F)c1` [Compound 213], the “LC50 CL” value in experiment [1] was 0.00075%. Also, the “LC50 HF” value in experiment [2] was more than 100 µg. For the same molecule, the “LC50 TBW E” value in experiment [3] was more than 0.1%.

With `COc1cc(N=C(OCc2cccc(Oc3ccccc3)c2)C(C)C)cc(C(F)(F)F)c1` [Compound 76], the “LC50 CL” value in experiment [1] is reported as 0.002%. Further, the “LC50 HF” value in experiment [2] was 20 µg. Also, in experiment [3], the “LC50 TBW E” value came out at 0.05%.

In the case of `CC(C)C(=Nc1ccc(F)cc1)OCc1cccc(Oc2cccc(Cl)c2)c1` [Compound 205], in experiment [1], the “LC50 CL” value worked out at 0.004%. The “LC50 HF” value in experiment [2] is 50 µg. Further, the “LC50 TBW E” value in experiment [3] was more than 0.1%.

In the case of `CC(C)C(=Nc1c(Br)cc(F)cc1Br)OCc1cccc(Oc2ccccc2)c1` [Compound 130], in experiment [1], the “LC50 CL” value is on record as 0.005%. Also, in experiment [2], the “LC50 HF” value was more than 100 µg. Besides, the “LC50 TBW E” value in experiment [3] is recorded as more than 0.1%.

On to `CCOc1ccc(N=C(OCc2cccc(Oc3ccccc3)c2)C(C)(C)C)cc1` [Compound 164], for which the “LC50 CL” value in experiment [1] is recorded as 0.005%. In addition, the “LC50 HF” value in experiment [2] was more than 100 µg. For the same molecule, the “LC50 TBW E” value in experiment [3] is given as more than 0.1%.

`CCC(=Nc1cccc(Cl)c1Cl)OCc1cccc(Oc2ccccc2)c1` [Compound 28]: in experiment [1], the “LC50 CL” value worked out at 0.009%. Besides, the “LC50 HF” value in experiment [2] is more than 100 µg. Moreover, the “LC50 TBW E” value in experiment [3] is reported as more than 0.1%.

As to `CC(C)C(=Nc1ccc(F)cc1)OCc1cccc(Oc2ccc(F)cc2)c1` [Compound 197], the “LC50 CL” value in experiment [1] is 0.0004%. Besides, the “LC50 HF” value in experiment [2] was more than 100 µg. Besides, the “LC50 TBW E” value in experiment [3] is 0.05%.

Turning to `CCC(=Nc1ccc(F)c(Cl)c1)OCc1cccc(Oc2ccc(F)cc2)c1` [Compound 115], the “LC50 CL” value in experiment [1] is 0.0012%. The “LC50 HF” value in experiment [2] was 10 µg. Besides, in experiment [3], the “LC50 TBW E” value is 0.075%.

For `CCOC(=O)c1ccc(N=C(OCc2cccc(Oc3ccccc3)c2)C(C)C)cc1Cl` [Compound 104], in experiment [1], the “LC50 CL” value was 0.004%. The “LC50 HF” value in experiment [2] is more than 100 µg. Further, the “LC50 TBW E” value in experiment [3] is more than 0.1%.

Take `CC(C)C(=Nc1cc(C(F)(F)F)cc(C(F)(F)F)c1)OCc1cccc(Oc2ccccc2)c1` [Compound 78]: in experiment [1], the “LC50 CL” value is 0.0025%. For the same molecule, in experiment [2], the “LC50 HF” value was more than 100 µg. Further, in experiment [3], the “LC50 TBW E” value is more than 0.1%.

(Values after patent US5089623A, “Certain imidate insecticides” (Imperial Chemical Industries Plc, priority 1990, dated 1992).)
